# From patent EP2776398B1, “SUBSTITUTED PYRAZOLYL-BASED UREA DERIVATIVES AS VANILLOID RECEPTOR LIGANDS” (Medifron DBT Inc., priority 2011, dated 2013)
# Biological target: T1, vanilloid receptor 1 (VR1/TRPV1 receptor) (Homo sapiens, UniProt Q8NER1)
# T1 construct: expressed in transfected cells; host or cells: CHO K1 cells (ECACC), stably transfected
# Assay: Functional testing on vanilloid receptor 1: FLIPR Ca2+ influx assay against capsaicin (Cap) in transfected CHO K1 cells (pharmacological method II)
# Assay type: cell-based
# Parameters: key to (f) Ki (human being) [nM] Cap: agonist classification: AG = agonist
# Conditions: @ 5µM; human VR1 in CHO K1 cells; capsaicin; relative to maximum inhibition with 10 µM capsazepine; read-out: inhibition (as a percentage), printed in column (f) Ki (human being) [nM] Cap
# Source text: […]
# T1 sequence (Q8NER1 whole entry): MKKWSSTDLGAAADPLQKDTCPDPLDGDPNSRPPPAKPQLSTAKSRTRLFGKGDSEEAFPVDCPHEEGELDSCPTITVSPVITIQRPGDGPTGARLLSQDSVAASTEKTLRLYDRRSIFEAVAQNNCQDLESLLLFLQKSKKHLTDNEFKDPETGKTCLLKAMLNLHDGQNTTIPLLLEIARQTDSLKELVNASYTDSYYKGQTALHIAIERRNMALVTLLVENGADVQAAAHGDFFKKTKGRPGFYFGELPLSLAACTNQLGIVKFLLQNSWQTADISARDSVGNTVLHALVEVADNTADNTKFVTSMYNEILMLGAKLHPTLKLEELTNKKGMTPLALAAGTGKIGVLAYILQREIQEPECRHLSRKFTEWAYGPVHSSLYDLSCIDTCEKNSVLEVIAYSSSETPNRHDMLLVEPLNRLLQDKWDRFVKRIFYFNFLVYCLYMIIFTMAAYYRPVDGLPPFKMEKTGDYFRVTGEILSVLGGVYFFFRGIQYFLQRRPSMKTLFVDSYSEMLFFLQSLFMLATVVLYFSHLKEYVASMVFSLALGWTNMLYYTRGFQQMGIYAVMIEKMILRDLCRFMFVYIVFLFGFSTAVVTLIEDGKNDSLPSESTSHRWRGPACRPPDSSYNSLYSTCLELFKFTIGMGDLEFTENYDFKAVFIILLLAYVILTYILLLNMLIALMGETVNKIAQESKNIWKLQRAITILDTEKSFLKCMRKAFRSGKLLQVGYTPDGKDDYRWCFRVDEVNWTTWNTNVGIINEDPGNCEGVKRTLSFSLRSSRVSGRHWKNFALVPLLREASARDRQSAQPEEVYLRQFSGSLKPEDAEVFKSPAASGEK
row,inhibition at 5 µM [%],SMILES
1,48,"O=C(NCc1cc(C(F)(F)F)nn1-c1ccc(F)c(F)c1)Nc1ccc(COCCO)c(F)c1 [A132, 1-[[2-(3,4-Difluoro-phenyl)-5-(trifluoromethyl)-2H-pyrazol-3-yl]-methyl]-3-[3-fluoro-4-(2-hydroxy-ethoxy-methyl)-phenyl]-urea]"

# Same assay, conditions: human VR1 in CHO K1 cells; AG printed instead of a Ki
row,(f) Ki (human being) [nM] Cap: agonist classification,SMILES
1,AG,"CC(C(=O)NCc1cc(C(C)(C)C)nn1-c1cccc(Cl)c1)c1ccc(CO)c(Cl)c1 (centres unmarked) [A51, N-[[5-tert-Butyl-2-(3-chlorophenyl)-2H-pyrazol-3-yl]-methyl]-2-[3-chloro-4-(hydroxymethyl)-phenyl]-propionamide]"
2,AG,"COc1c(F)cc(C(C)C(=O)NCc2cc(C(C)(C)C)nn2-c2ccc(F)c(Cl)c2)cc1F (centres unmarked) [A5, N-[[5-tert-Butyl-2-(3-chloro-4-fluoro-phenyl)-2H-pyrazol-3-yl]-methyl]-2-(3,5-difluoro-4-methoxy-phenyl)-propionamide]"
3,AG,"COc1ccc(NC(=O)NCc2cc(C(C)(C)C)nn2-c2cccc(Cl)c2)cc1OC [A13, 1-[[5-tert-Butyl-2-(3-chlorophenyl)-2H-pyrazol-3-yl]-methyl]-3-(3,4-dimethoxyphenyl)-urea]"
4,AG,"CC(C(=O)NCc1cc(C(F)(F)F)nn1-c1cccc(C(F)(F)F)c1)c1ccc(CO)c(F)c1 (centres unmarked) [A48, 2-[3-Fluoro-4-(hydroxymethyl)-phenyl]-N-[[5-(trifluoromethyl)-2-[3-(trifluoromethyl)phenyl]-2H-pyrazol-3-yl]-methyl]-propionamide]"
5,AG,"CC(C(=O)NCc1cc(C(C)(C)C)nn1-c1cccc(Cl)c1)c1ccc(C(O)CO)c(F)c1 (centres unmarked) [A145, N-[[5-tert-Butyl-2-(3-chlorophenyl)-2H-pyrazol-3-yl]-methyl]-2-[4-(1,2-dihydroxy-ethyl)-3-fluoro-phenyl]-propionamide]"
6,AG,"CC(C(=O)NCc1cc(C(C)(C)C)nn1-c1cccc(Cl)c1)c1ccc(C(O)CO)cc1 (centres unmarked) [A147, N-[[5-tert-Butyl-2-(3-chlorophenyl)-2H-pyrazol-3-yl]-methyl]-2-[4-(1,2-dihydroxy-ethyl)-phenyl]-propionamide]"
7,AG,"CC(C(=O)NCc1cc(C(C)(C)C)nn1-c1cccc(F)c1)c1ccc(CO)c(F)c1 (centres unmarked) [A37, N-[[5-tert-Butyl-2-(3-fluorophenyl)-2H-pyrazol-3-yl]-methyl]-2-[3-fluoro-4-(hydroxymethyl)-phenyl]-propionamide]"
8,AG,"CC(C)(C)c1cc(CNC(=O)Nc2cc(F)c(O)c(F)c2)n(-c2cccc(Cl)c2)n1 [A11, 1-[[5-tert-Butyl-2-(3-chlorophenyl)-2H-pyrazol-3-yl]-methyl]-3-(3,5-difluoro-4-hydroxy-phenyl)-urea]"

# Same assay, conditions: read-out: (f) Ki (human being) [nM] Cap
row,SMILES,Ki [nM]
1,"COc1cccc(-n2nc(C(F)(F)F)cc2CNC(=O)C(C)c2ccc(COCCO)c(F)c2)c1 (centres unmarked) [A114, 2-[3-Fluoro-4-(2-hydroxy-ethoxy-methyl)-phenyl]-N-[[2-(3-methoxyphenyl)-5-(trifluoromethyl)-2H-pyrazol-3-yl]-methyl]-propionamide]",46
2,"O=C(NCc1cc(C(F)(F)F)nn1-c1cccc(Cl)c1)Nc1ccc(OCC(O)CO)c(F)c1 (centres unmarked) [A25, 1-[[2-(3-Chlorophenyl)-5-(trifluoromethyl)-2H-pyrazol-3-yl]-methyl]-3-[4-(2,3-dihydroxy-propoxy)-3-fluoro-phenyl]-urea]",65
3,"COCCOCc1ccc(C(C)C(=O)NCc2cc(C(F)(F)F)nn2-c2cccc(Cl)c2)cc1F (centres unmarked) [A111, N-[[2-(3-Chlorophenyl)-5-(trifluoromethyl)-2H-pyrazol-3-yl]-methyl]-2-[3-fluoro-4-(2-methoxy-ethoxy-methyl)-phenyl]-propionamide]",38
4,"O=C(NCc1cc(C(F)(F)F)nn1-c1cccc(F)c1)Nc1ccc(COCCO)c(F)c1 [A131, 1-[3-Fluoro-4-(2-hydroxy-ethoxy-methyl)-phenyl]-3-[[2-(3-fluorophenyl)-5-(trifluoromethyl)-2H-pyrazol-3-yl]-methyl]-urea]",56
5,"CC(C(=O)NCc1cc(C(F)(F)F)nn1-c1cccc(F)c1)c1ccc(COCCO)c(F)c1 (centres unmarked) [A122, 2-[3-Fluoro-4-(2-hydroxy-ethoxy-methyl)-phenyl]-N-[[2-(3-fluorophenyl)-5-(trifluoromethyl)-2H-pyrazol-3-yl]-methyl]-propionamide]",45
6,"Cc1ccc(C)c(-n2nc(C(F)(F)F)cc2CNC(=O)Nc2ccc(CO)c(F)c2)c1 [A74, 1-[[2-(2,5-Dimethyl-phenyl)-5-(trifluoromethyl)-2H-pyrazol-3-yl]-methyl]-3-[3-fluoro-4-(hydroxymethyl)-phenyl]-urea]",44
7,"O=C(NCc1cc(C(F)(F)F)nn1-c1cccc(Cl)c1)Nc1ccc(COCCO)c(F)c1 [A127, 1-[[2-(3-Chlorophenyl)-5-(trifluoromethyl)-2H-pyrazol-3-yl]-methyl]-3-[3-fluoro-4-(2-hydroxy-ethoxy-methyl)-phenyl]-urea]",40
8,"COCCOCc1ccc(C(C)C(=O)NCc2cc(C(F)(F)F)nn2-c2ccc(F)c(Cl)c2)cc1F (centres unmarked) [A112, N-[[2-(3-Chloro-4-fluoro-phenyl)-5-(trifluoromethyl)-2H-pyrazol-3-yl]-methyl]-2-[3-fluoro-4-(2-methoxy-ethoxy-methyl)-phenyl]-propionamide]",79
9,"CC(C(=O)NCc1cc(C(F)(F)F)nn1-c1cccc(F)c1)c1ccc(CCO)c(F)c1 (centres unmarked) [A136, 2-[3-Fluoro-4-(2-hydroxy-ethyl)-phenyl]-N-[[2-(3-fluorophenyl)-5-(trifluoromethyl)-2H-pyrazol-3-yl]-methyl]-propionamide]",40

# Second part, the compound after the results:
row,Ki [nM],SMILES
1,6,"COc1c(F)cc(C(C)C(=O)NCc2cc(C3CC3)nn2-c2cccc(Cl)c2)cc1F (centres unmarked) [A3, N-[[2-(3-Chlorophenyl)-5-cyclopropyl-2H-pyrazol-3-yl]-methyl]-2-(3,5-difluoro-4-methoxy-phenyl)-propionamide]"
2,20,"CC(C(=O)NCc1cc(C(F)(F)F)nn1-c1ccc(F)c(Cl)c1)c1ccc(COCCO)c(F)c1 (centres unmarked) [A121, N-[[2-(3-Chloro-4-fluoro-phenyl)-5-(trifluoromethyl)-2H-pyrazol-3-yl]-methyl]-2-[3-fluoro-4-(2-hydroxy-ethoxy-methyl)-phenyl]-propionamide]"
3,0.7,"CC(C(=O)NCc1cc(C(C)(C)C)nn1-c1cccc(Cl)c1)c1ccc(C2(O)CC2)c(F)c1 (centres unmarked) [A100, N-[[5-tert-Butyl-2-(3-chlorophenyl)-2H-pyrazol-3-yl]-methyl]-2-[3-fluoro-4-(1-hydroxy-cyclopropyl)-phenyl]-propionamide]"
4,1,"CC(C(=O)NCc1cc(C(F)(F)F)nn1-c1cccc(Cl)c1)c1cc(F)c(O)c(F)c1 (centres unmarked) [A10, N-[[2-(3-Chlorophenyl)-5-(trifluoromethyl)-2H-pyrazol-3-yl]-methyl]-2-(3,5-difluoro-4-hydroxy-phenyl)-propionamide]"
5,18,"O=C(NCc1cc(C2CC2)nn1-c1cccc(Cl)c1)Nc1ccc(CO)c(F)c1 [A53, 1-[[2-(3-Chlorophenyl)-5-cyclopropyl-2H-pyrazol-3-yl]-methyl]-3-[3-fluoro-4-(hydroxymethyl)-phenyl]-urea]"
6,35,"O=C(NCc1cc(C(F)(F)F)nn1-c1cccc(Cl)c1)Nc1ccc(OCC(O)CO)cc1 (centres unmarked) [A23, 1-[[2-(3-Chlorophenyl)-5-(trifluoromethyl)-2H-pyrazol-3-yl]-methyl]-3-[4-(2,3-dihydroxy-propoxy)-phenyl]-urea]"
7,21,"Cc1cc(-n2nc(C(F)(F)F)cc2CNC(=O)Nc2ccc(CO)c(F)c2)ccc1C#N [A81, 1-[[2-(4-Cyano-3-methyl-phenyl)-5-(trifluoromethyl)-2H-pyrazol-3-yl]-methyl]-3-[3-fluoro-4-(hydroxymethyl)-phenyl]-urea]"
8,6,"CC(C)(C)c1cc(CNC(=O)Nc2ccc(CO)c(F)c2)n(-c2cccc(F)c2)n1 [A54, 1-[[5-tert-Butyl-2-(3-fluorophenyl)-2H-pyrazol-3-yl]-methyl]-3-[3-fluoro-4-(hydroxymethyl)-phenyl]-urea]"
9,27,"Cc1cc(C)cc(-n2nc(C(F)(F)F)cc2CNC(=O)Nc2ccc(CO)c(F)c2)c1 [A73, 1-[[2-(3,5-Dimethyl-phenyl)-5-(trifluoromethyl)-2H-pyrazol-3-yl]-methyl]-3-[3-fluoro-4-(hydroxymethyl)-phenyl]-urea]"
10,9,"O=C(NCc1cc(C(F)(F)F)nn1-c1cc(F)cc(F)c1)Nc1ccc(CO)c(F)c1 [A66, 1-[[2-(3,5-Difluoro-phenyl)-5-(trifluoromethyl)-2H-pyrazol-3-yl]-methyl]-3-[3-fluoro-4-(hydroxymethyl)-phenyl]-urea]"
11,3,"CC(C(=O)NCc1cc(C(F)(F)F)nn1-c1ccc(F)c(Cl)c1)c1ccc(CO)c(F)c1 (centres unmarked) [A42, N-[[2-(3-Chloro-4-fluoro-phenyl)-5-(trifluoromethyl)-2H-pyrazol-3-yl]-methyl]-2-[3-fluoro-4-(hydroxymethyl)-phenyl]-propionamide]"
12,3,"CC(C)c1cccc(-n2nc(C(F)(F)F)cc2CNC(=O)C(C)c2ccc(COCCO)c(F)c2)c1 (centres unmarked) [A115, 2-[3-Fluoro-4-(2-hydroxy-ethoxy-methyl)-phenyl]-N-[[2-(3-isopropyl-phenyl)-5-(trifluoromethyl)-2H-pyrazol-3-yl]-methyl]-propionamide]"
13,9,"Cc1cccc(-n2nc(C(F)(F)F)cc2CNC(=O)Nc2ccc(CO)c(F)c2)c1 [A70, 1-[3-Fluoro-4-(hydroxymethyl)-phenyl]-3-[[2-(m-tolyl)-5-(trifluoromethyl)-2H-pyrazol-3-yl]-methyl]-urea]"
14,27,"COc1c(Cl)cccc1-n1nc(C(F)(F)F)cc1CNC(=O)Nc1ccc(CO)c(F)c1 [A90, 1-[[2-(3-Chloro-2-methoxy-phenyl)-5-(trifluoromethyl)-2H-pyrazol-3-yl]-methyl]-3-[3-fluoro-4-(hydroxymethyl)-phenyl]-urea]"
